Changes are numbered by the printed parent chain.
Legend:
Type in all cases: biochemical
[1] = target: T1, E. coli threonine deaminase (ilvA), wild type, SEQ ID NO: 2 (Escherichia coli, UniProt P04968, A120R/A140R/G195C/G334V/V121L); experiment: Threonine deaminase steady state kinetics, E. coli wild type
T1 construct: made in house; host or cells: E. coli (crude extract)
Method: (§1) Before conducting further transformation experiments using the isolated ilvA alleles in transgenic plants, each allele was over-expressed in E. coli to determine its kinetic parameters. Kinetics data on threonine deaminases containing various mutations, and a comparison to data available for threonine deaminases from Arabidopsis, are provided in Table 4. The E. coli ilvA481 variants were subcloned into pSE380 (Invitrogen, Carlsbad, Calif.) and expression was induced with 0.2 mM IPTG at 37° C. for 3 hours. Expression of the E. coli alleles was high and fairly consistent as visualized by SDS-PAGE.
The effects of amino acid substitutions at Leu481 in ilvA were assessed by steady state kinetic analysis in the presence and absence of L-isoleucine. Threonine deaminase polypeptides for use in in vitro kinetics studies were extracted from E. coli cells in assay buffer containing 50 mM potassium phosphate (pH7.5), 1 mM dithiothreitol (DTT), and 0.5 mM ethylenediamine-tetraacetate. A continuous assay method was employed to monitor the formation of α-ketobutyrate directly at 230 nm (ε230 (pH7.5)=540 M^−1cm^−1 whereas threonine absorption was negligible (˜1%)). […] The kinetic parameters were determined by fitting the data points to the equations using GraFit 4.0 software (Erithacus Software, Surrey, UK). […]

[2] = target: T2, E. coli threonine deaminase (ilvA) variant L447F (ilvA219), SEQ ID NO: 3 (Escherichia coli, UniProt P04968, A120R/A140R/G195C/G334V/L447F/V121L); experiment: Threonine deaminase steady state kinetics, L447F (ilvA219)
T2 construct: made in house; host or cells: E. coli (crude extract)
T2 sequence (P04968 1-514 A120R/V121L/A140R/G195C/G334V/L447F): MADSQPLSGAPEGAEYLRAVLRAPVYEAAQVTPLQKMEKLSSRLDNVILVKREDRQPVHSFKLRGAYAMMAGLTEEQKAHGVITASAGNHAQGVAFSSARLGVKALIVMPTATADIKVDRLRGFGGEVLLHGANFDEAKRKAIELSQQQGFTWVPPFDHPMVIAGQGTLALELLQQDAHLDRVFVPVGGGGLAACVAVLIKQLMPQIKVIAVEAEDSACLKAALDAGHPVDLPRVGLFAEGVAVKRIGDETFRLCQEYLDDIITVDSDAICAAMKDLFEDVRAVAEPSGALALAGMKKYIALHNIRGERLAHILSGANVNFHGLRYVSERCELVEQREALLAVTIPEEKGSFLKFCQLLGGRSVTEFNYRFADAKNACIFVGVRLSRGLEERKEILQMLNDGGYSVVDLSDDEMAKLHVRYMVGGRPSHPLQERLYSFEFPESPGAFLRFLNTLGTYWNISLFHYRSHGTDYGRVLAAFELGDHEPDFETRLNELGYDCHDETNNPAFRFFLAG

[3] = target: T3, E. coli threonine deaminase (ilvA) variant L481Y, SEQ ID NO: 5 (Escherichia coli, UniProt P04968, A120R/A140R/G195C/G334V/L481Y/V121L); experiment: Threonine deaminase steady state kinetics, L481Y
T3 construct: made in house; host or cells: E. coli (pSE380, crude extract)
T3 sequence (P04968 1-514 A120R/V121L/A140R/G195C/G334V/L481Y): T2 sequence (P04968 1-514 A120R/V121L/A140R/G195C/G334V/L447F) with F447L, L481Y
Method: as §1
The effects of amino acid substitutions at Leu481 in ilvA were assessed by steady state kinetic analysis in the presence and absence of L-isoleucine. Threonine deaminase polypeptides for use in in vitro kinetics studies were extracted from E. coli cells in assay buffer containing 50 mM potassium phosphate (pH7.5), 1 mM dithiothreitol (DTT), and 0.5 mM ethylenediamine-tetraacetate. A continuous assay method was employed to monitor the formation of α-ketobutyrate directly at 230 nm (ε230 (pH7.5)=540 M^−1cm^−1 whereas threonine absorption was negligible (˜1%)). The assay was initiated by adding 20 μl of crude extract diluted 1:20 v/v to the assay vessel containing L-threonine (between 2.5 mM and 50 mM) in a final volume of 1 mL. For L-isoleucine inhibition, L-isoleucine was added between 0 mM and 20 mM. The kinetic parameters were determined by fitting the data points to the equations using GraFit 4.0 software (Erithacus Software, Surrey, UK). For comparison, the kcat values of L481 alleles were normalized to the kcat value for the wild type IlvA enzyme. Enzymes represented in FIG. 7 are: wild type E. coli threonine deaminase (circles), L481Y TD enzyme (diamonds), L481F TD enzyme (triangles), and the L481T TD enzyme (squares). Table 4 also summarizes the kinetic parameters of the variant threonine deaminase enzymes produced by the various E. coli ilvA alleles.

T1 sequence (P04968 whole entry A120R/V121L/A140R/G195C/G334V): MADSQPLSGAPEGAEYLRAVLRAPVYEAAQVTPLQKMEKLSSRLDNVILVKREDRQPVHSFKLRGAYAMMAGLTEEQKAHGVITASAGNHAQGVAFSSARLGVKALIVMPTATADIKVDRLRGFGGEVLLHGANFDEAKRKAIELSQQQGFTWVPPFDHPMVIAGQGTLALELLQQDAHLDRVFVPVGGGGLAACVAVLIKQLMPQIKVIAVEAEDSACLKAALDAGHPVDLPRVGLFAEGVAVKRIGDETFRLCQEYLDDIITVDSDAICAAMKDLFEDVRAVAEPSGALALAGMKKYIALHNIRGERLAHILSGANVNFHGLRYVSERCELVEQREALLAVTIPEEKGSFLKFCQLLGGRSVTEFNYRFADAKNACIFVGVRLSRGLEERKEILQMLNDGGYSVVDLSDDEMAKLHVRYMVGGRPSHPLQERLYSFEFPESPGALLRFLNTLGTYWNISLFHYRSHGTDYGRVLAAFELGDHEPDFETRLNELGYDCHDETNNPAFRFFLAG

| SMILES | IC50 [1] [µM] | IC50 [2] [µM] | IC50 [3] [µM] | Km ([1]; read-out: Km^Thr, E. coli wt, pMON25858, pH 7.5, L-threonine 2.5-50 mM) [µM] | Hill coefficient (n), substrate binding ([2]; L447F, pMON25859, negative cooperativity) | Km ([2]; read-out: Km^Thr, L447F, pMON25859, pH 7.5, L-threonine 2.5-50 mM) [µM] | Hill coefficient (n), substrate binding ([3]; L481Y, pMON25868, degree of cooperativity) | Km ([3]; read-out: Km^Thr, L481Y, pMON25868, pH 7.5, L-threonine 2.5-50 mM) [µM] |
| --- | --- | --- | --- | --- | --- | --- | --- | --- |
| CC[C@H](C)[C@H](N)C(=O)O [L-isoleucine] | 56 | > 20000 | 1600 | – | – | – | – | – |
| C[C@@H](O)[C@H](N)C(=O)O [L-threonine] | – | – | – | 8300 | 0.5 | 1700 | 1.1 | 2000 |
